The source of these data is US7651846B2, “Treatment and diagnosis of conditions associated with elevated arginase activity” (Children's Hospital & Research Center at Oakland, priority 2003, dated 2010).

For orientation: Km means the concentration of substrate that gives half-maximal velocity.

Data set [1] relates to asthma patients. To be noted: nebulised, steroid naive asthma; cited from earlier work.
Data set [2] has as its system arginase. Conditions: cited from earlier work.
The test system of data set [3] is hyperresponsiveness of reactive airways. Conditions: animal studies, inhalation of low doses; cited from earlier work.
Data set [4] concerns cystic fibrosis patients. To be noted: inhaled; cited from earlier work.
In data set [5] the test system is patients with asthma. Conditions: oral; cited from earlier work.
Data set [6] deals with normal and asthmatic subjects. Conditions: inhaled, dose-dependent; cumulative effect higher in asthmatic subjects; cited from earlier work.
Data set [7] can be described thus: Plasma amino acid levels after oral L-arginine supplementation in SCD patients with pulmonary hypertension. It counts as in vivo, human. To be noted: after five days of oral L-arginine supplementation, n=10, p<0.05. The procedure:
Amino Acid Levels. (A complete amino acid panel, including arginine, citrulline, ornithine, and L-arginine analogue asymmetric di-methyl-L-arginine). Quantitative plasma amino acid levels are measured in μmol/L, using a Beckman 6300 amino acid analyzer. The amino acids are separated on an lithium ion exchange column and then reacted with ninhydrin to generate a color response. The data is collected and analyzed using Beckman 32 Karat software, at the Molecular Structure Facility, University of California, Davis, Calif.
(§1) Patients with sickle cell disease and documented pulmonary hypertension by echocardiography were treated with oral L-arginine-HCl, at a dose of 0.1 g/kg TID for five days. […] Blood samples for determination of amino acid levels were drawn in the morning of Day 0 (pre-treatment), […], and Day six of the study. Arginase activity levels were determined on Day 0. No patients were being concurrently treated with vasodilators or anticoagulant agents, and no patients received a red blood cell transfusion during the five-day study period. Cardiologists involved in the interpretation of echocardiograms were unaware of the therapy given.

The test system of data set [8] is cationic amino acid molecules (Cationic Amino Acid Transporter, CAT). To be noted: read-out: Km for arginine transport; cited from earlier work.
The subject of data set [9] is patients with a known diagnosis of asthma. To be noted: single oral dose 0.1 gm/kg, one patient.
Description: The effects of arginine supplementation on pulmonary function tests is evaluated by administering supplemental arginine (oral or intravenous) alone or in conjunction with magnesium and/or an arginase inhibitor to patients with a known diagnosis of asthma, defined as ≧3 wheezing episodes and a past history of asthma medication usage (e.g., bronchodilators, steroids, inhaled steroids, or leukotriene inhibitors etc). Pulmonary function tests are performed before and after a single dose of arginine (0.1 gram/kg to a max of 10 grams).
A single dose of oral arginine (0.1 gm/kg) was administered. Pulmonary function tests were determined prior to treatment and 2 hours after arginine supplementation.
Data set [10] concerns Patients with sickle cell disease and documented pulmonary hypertension. Put plainly: Oral L-arginine in sickle cell disease patients with pulmonary hypertension, Doppler echocardiography. It counts as in vivo, human.
Source text: Sickle cell patients. Seventeen sickle cell disease patients with documented pulmonary hypertension at steady-state were enrolled in the study. All known patients with pulmonary hypertension receiving care at the Northern California Comprehensive Sickle Cell Center were approached for participation in this analysis. Twelve patients were homozygous for hemoglobin S, three patients had hemoglobin type SC, and two patient had hemoglobin S β-thalassemia. The mean age of patients was 32.7±15 years with a range of 13 to 63 years. There were seven women enrolled. Ten ethnically matched normal non-sickle cell disease volunteers were enrolled as a control group in order to compare amino acid levels and arginase activity. The mean age was 20.6±10 years, ranging from 10 to 34 years. There were four females and six males enrolled. Pulmonary hypertension was defined as estimated pulmonary artery pressures >30 mm Hg by echocardiogram (or tricuspid regurgitant jet velocity of greater than 2.5 m/sec), >two months duration, not associated with acute chest syndrome. A chart review was performed on all patients to obtain tricuspid regurgitant jet velocity data from previous echocardiograms.
as §1
Echocardiography. […] They were the only patient found to not show an improvement in pulmonary hypertension by echocardiogram.
Results were unavailable from outside hospitals in three patients. […]

In the case of `N=C(N)NCCC[C@@H](N)C(=O)O` [D-arginine], in [1], the “exhaled NO following administration” value is given as “increased”.

As for `NC(=NCCC[C@H](N)C(=O)O)NO` [NG-hydroxyl-L-arginine], in [2], the “inhibition of arginase activity” value is recorded as “potent inhibitor”.

Consider `N=C(N)NCCC[C@H](N)C(=O)O` [L-arginine], for which, in [3], the “hyperresponsiveness of reactive airways” value is on record as “completely blocked”. The pulmonary functions entry in data set [4] is reported as “improves”. The “airway hyperresponsiveness to histamine as reflected by PC(20)” value in [5] is listed as “does not influence”. Further, the “exhaled NO” value in [6] is listed as “increased”. For the same molecule, in data set [7], the “plasma L-arginine concentration” value is listed as “increased significantly” and the plasma ornithine concentration entry is listed as “increased significantly”. The Km in [8] was around 100 µM. Further, in data set [9] (2 hours after), the “FIF 50% improvement” value is listed as 23%, the “effect on lung volumes” value is recorded as “minimal effect” and the effect on spirometry result is “did not significantly effect spirometry”. In addition, in data set [9] (within 2 hours), the “airway conductance, Gaw increase” value is 28% and the “airway resistance, Raw decrease” value was determined as 22%. Besides, the “oxygen saturation by venous blood gas after treatment” value in data set [9] (increase from 85 %) is listed as 92%. Further, the “pulmonary artery systolic pressure after therapy” value in [10] (oral 0.1 g/kg TID for five days, baseline 63.9±13 mmHg, p=0.002) is on record as 54.2±12 mmHg. Besides, the “mean reduction of pulmonary artery systolic pressure” value in data set [10] (oral L-arginine-HCl 0.1 g/kg TID, after five days of therapy, p=0.002) stood at 15.2%. The “follow-up echocardiography (pulmonary artery systolic pressure)” value in data set [10] (≧one month after arginine therapy, nine compliant patients: four reverted to baseline, four persistent improvement, one worsening) is reported as “mixed results”. For the same molecule, in [1], the “exhaled NO following administration” value was “increased”.
